Experimental data reported in patent publication US11976083B2, “Inhibitors of peptidylarginine deiminases” (Gilead Sciences, Inc., priority 2020, dated 2024).

biological target: T1, human PAD4 (Homo sapiens, UniProt Q9UM07); assay: In vitro PAD4 BAEE biochemical assay; settings: BAEE substrate 3 mM, 5 nM PAD4, 2 mM calcium chloride; geometric mean of multiple experiments
T1 construct: human PAD4 (NM_012387), A2-P663, was PCR amplified; His-SUMO (N, cleaved yes); made in house; host or cells: E. coli BL21(DE3)
Procedure, shortened: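 Fluorescence read-out (ex 405/em 535 nm) of isoindole formed from ammonia, o-phthalaldehyde and DTT after EDTA stop. Reaction: 5 nM PAD4, 2 mM CaCl2, 3 mM BAEE, 2 h, 25 °C, after 30 min enzyme–compound preincubation. Normalised to BB-Cl-Amidine (50 µM) and DMSO controls.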

T1 sequence (Q9UM07 2-663): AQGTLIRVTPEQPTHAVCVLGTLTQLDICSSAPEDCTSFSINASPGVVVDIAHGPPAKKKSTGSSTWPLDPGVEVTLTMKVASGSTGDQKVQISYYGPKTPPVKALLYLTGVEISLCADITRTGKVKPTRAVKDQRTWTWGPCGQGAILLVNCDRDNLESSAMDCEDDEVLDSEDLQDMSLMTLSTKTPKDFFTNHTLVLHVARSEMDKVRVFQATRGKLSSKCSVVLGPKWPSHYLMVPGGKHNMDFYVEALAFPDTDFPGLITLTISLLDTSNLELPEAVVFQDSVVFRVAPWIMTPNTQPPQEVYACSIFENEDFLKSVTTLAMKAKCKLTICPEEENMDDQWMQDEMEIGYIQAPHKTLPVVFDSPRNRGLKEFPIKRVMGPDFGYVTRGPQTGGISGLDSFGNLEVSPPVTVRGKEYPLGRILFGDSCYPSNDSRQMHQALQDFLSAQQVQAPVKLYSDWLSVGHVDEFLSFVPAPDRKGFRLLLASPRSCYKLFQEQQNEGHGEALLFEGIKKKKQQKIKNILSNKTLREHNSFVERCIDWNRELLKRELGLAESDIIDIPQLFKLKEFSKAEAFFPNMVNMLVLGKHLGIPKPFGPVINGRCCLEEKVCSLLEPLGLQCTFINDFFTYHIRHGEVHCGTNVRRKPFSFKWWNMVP

Q: Which IC50 does the source give for `COc1cc(C(=O)N2CC[C@@H](OC)[C@@H](N)C2)cc2nc(-c3cc4ccc5nc4n3CCCCCc3cc4ccccc4nc3C(=O)N(C)[C@@H]5C)n(C)c12` [Example 735, (2~{R})-21-[5-[(3~{S},4~ {R})-3-amino-4-methoxy-piperidine-1-carbonyl]-7-methoxy-1-methyl-benzimidazol-2-yl]-2,3-dimethyl-3,6,20,26-tetrazapentacyclo[18.5.2.0^ {5,14).0^{7,12}.0^ {23,27}]heptacosa-1(26),5(14),6,8,10,12,21,23(27), 24-nonaen-4-one] here?
A: The IC50 was 143 nM.

Q: How did the IC50 turn out when `COc1cc(C(=O)N2CC[C@@H](OC(F)F)[C@@H](N)C2)cc2nc(-c3cc4ccc5nc4n3CCCCCc3cc4ccccc4nc3C(=O)N(C)[C@@H]5C)n(C)c12` [Example 736, (2~{R})-21-[5-[(3~{S},4~{R})-3-amino-4-(difluoromethoxy)piperidine-1-carbonyl]-7-methoxy-1-methyl-benzimidazol-2-yl]-2,3-dimethyl-3,6,20,26-tetrazapentacyclo[18.5.2.0^ {5,14}.0^{7,12}.0^{23,27}] heptacosa-1(26),5(14), 6,8,10,12,21,23(27),24-nonaen-4-one] was run?
A: Its IC50 is 304 nM.

Q: For `CO[C@@H]1CCN(C(=O)c2cc(F)c3c(c2)nc(-c2cc4ccc5nc4n2CC(F)(F)CCC[C@@H]2C[C@H]2C(=O)N[C@@H]5C)n3C)C[C@@H]1N` [Example 738, (2~{R},5~{R},7~{R})-14-[5-[(3~{S},4~{R})-3-amino-4-methoxy-piperidine-1-carbonyl]-7-fluoro-1-methyl-benzimidazol-2-yl]-11,11-difluoro-2-methyl-3,13,19-triazatetracyclo[11.5.2.0^ {5,7}.0^{16,20}] icosa-1(19),14,16(20), 17-tetraen-4-one], which IC50 is on record?
A: The IC50 was 48 nM.

Q: For `CO[C@@H]1CCN(C(=O)c2cc(F)c3c(c2)nc(-c2cc4ccc5nc4n2CC(F)(F)/C=C/C[C@@H]2C[C@H]2C(=O)N[C@@H]5C)n3C)C[C@@H]1N` [Example 739], which IC50 is on record?
A: Its IC50 is 62 nM.

Q: Which IC50 does the source give for `CO[C@@H]1CCN(C(=O)c2cc(F)c3c(c2)nc(-c2cc4ccc5nc4n2CCCCCc2nc(Cl)ccc2C(=O)N[C@@H]5C)n3C)C[C@@H]1N` [Example 740, (2~{R})-17-[5-[(3~{S},4~ {R})-3-amino-4-methoxy-piperidine-1-carbonyl]-7-fluoro-1-methyl-benzimidazol-2-yl]-8-chloro-2-methyl-3,9,16,22-tetrazatetracyclo [14.5.2.0^{5,10}.0^{19,23}] tricosa-1(22),5(10),6,8,17,19(23),20-heptaen-4-one] here?
A: The IC50 was 30 nM.

Q: Which IC50 does the source give for `C[C@@H]1[C@H](N)CCCN1C(=O)c1cc(F)c2c(c1)nc(-c1cc3ccc4nc3n1CCCCCc1nc(Cl)ccc1C(=O)N[C@@H]4C)n2C` [Example 741, (2~{R})-17-[5-[(2~{R},3~{R})-3-amino-2-methyl-piperidine-1-carbonyl]-7-fluoro-1-methyl-benzimidazol-2-yl]-8-chloro-2-methyl-3,9,16,22-tetrazatetracyclo[14.5.2.0^ {5,10}.0^{19,23}]tricosa-1(22),5(10),6,8,17,19(23),20-heptaen-4-one] here?
A: The IC50 was 33 nM.

Q: For `CO[C@@H]1CCN(C(=O)c2cc(F)c3c(c2)nc(-c2cc4ccc5nc4n2CC(F)(F)/C=C/C[C@@H]2C[C@H]2C(=O)N[C@@H]5C)n3C2CC2)C[C@@H]1N` [Example 742, (2~{R},5~{R},7~{R},9~{E})-14-[5-[(3~{S},4~{R})-3-amino-4-methoxy-piperidine-1-carbonyl]-1-cyclopropyl-7-fluoro-benzimidazol-2-yl]-11,11-difluoro-2-methyl-3,13,19-triazatetracyclo[11.5.2.0^ {5,7}.0^{16,20}]icosa-1(19), 9,14,16(20),17-pentaen-4-one], which IC50 is on record?
A: The IC50 was 58 nM.

Q: Which IC50 does the source give for `CO[C@@H]1CCN(C(=O)c2cc(F)c3c(c2)nc(-c2cc4ccc5nc4n2CCCCCc2cc(Cl)ncc2C(=O)N[C@@H]5C)n3C)C[C@@H]1N` [Example 744, (2~{R})-17-[5-[(3~{S},4~ {R})-3-amino-4-methoxy-piperidine-1-carbonyl]-7-fluoro-1-methyl-benzimidazol-2-yl]-8-chloro-2-methyl-3,7,16,22-tetrazatetracyclo [14.5.2.0^{5,10).0^{19,23}] tricosa-1(22),5(10),6,8,17,19(23), 20-heptaen-4-one] here?
A: Its IC50 is 96 nM.

Q: Which IC50 does the source give for `CO[C@@H]1CCN(C(=O)c2cc(F)c3c(c2)nc(-c2cc4ccc5nc4n2CC(F)(F)CCC[C@@H]2C[C@H]2C(=O)N[C@@H]5C)n3C2C[C@H]2F)C[C@@H]1N` (some centres unmarked) [Example 745, (2~{R},5~{R},7~{R})-14-[5-[(3~{S},4~{R})-3-amino-4-methoxy-piperidine-1-carbonyl]-7-fluoro-1-[(1~{S},2~{R})-2-fluorocyclopropyl]benzimidazol-2-yl]-11,11-difluoro-2-methyl-3,13,19-triazatetracyclo [11.5.2.0^{5,7}.0^{16,20}]icosa-1(19),14,16(20),17-tetraen-4-one] here?
A: The IC50 was 22 nM.

Q: `CO[C@@H]1CCN(C(=O)c2cc(F)c3c(c2)nc(-c2cc4ccc5nc4n2CC(F)(F)CCC[C@@H]2C[C@H]2C(=O)N[C@@H]5C)n3[C@@H]2C[C@@H]2F)C[C@@H]1N` [Example 746, (2~{R},5~{R},7~{R})-14-[5-[(3~{S),4~{R})-3-amino-4-methoxy-piperidine-1-carbonyl]-7-fluoro-1-[(1~{R},2~{S})-2-fluorocyclopropyl]benzimidazol-2-yl]-11,11-difluoro-2-methyl-3,13,19-triazatetracyclo [11.5.2.0^{5,7}.0^{16,20}] icosa-1(19),14,16(20), 17-tetraen-4-one] was tested. Which IC50 did it give?
A: Its IC50 is 25 nM.

Q: How did the IC50 turn out when `C[C@@H]1[C@H](N)CCCN1C(=O)c1cc(F)c2c(c1)nc(-c1cc3ccc4nc3n1CC(F)(F)CCC[C@@H]1C[C@H]1C(=O)N[C@@H]4C)n2[C@@H]1C[C@@H]1F` [Example 747, (2~{R},5~{R},7~{R})-14-[5-[(2~{R},3~{R})-3-amino-2-methyl-piperidine-1-carbonyl]-7-fluoro-1-[(1~{R},2~{S})-2-fluorocyclopropyl]benzimidazol-2-yl]-11,11-difluoro-2-methyl-3,13,19-triazatetracyclo [11.5.2.0^{5,7}.0^{16,20}] icosa-1(19),14,16(20),17-tetraen-4-one] was run?
A: Its IC50 is 10 nM.

Q: Which IC50 does the source give for `C[C@@H]1[C@H](N)CCCN1C(=O)c1cc(F)c2c(c1)nc(-c1cc3ccc4nc3n1CCCCCc1ncc3ccccc3c1C(=O)N[C@@H]4C)n2C1CC1` [Example 748, (2~{R})-21-[5-[(2~{R},3~ {R})-3-amino-2-methyl-piperidine-1-carbonyl]-1-cyclopropyl-7-fluoro-benzimidazol-2-yl]-2-methyl-3,13,20,26-tetrazapentacyclo[18.5.2.0^ {5,14}.0^{6,11}.0^{23,27}] heptacosa-1(26),5(14),6(11), 7,9,12,21,23(27),24-nonaen-4-one] here?
A: Its IC50 is 25 nM.

Q: For `COc1cc(C(=O)N2C[C@H]3CC[C@@H]2[C@@H]3N)cc2nc(-c3cc4ccc5cc4n3CCCCCCC(C)(C)C(=O)N[C@@H]5C)n(C)c12` [Example 749, (11~{R})-17-[5-[(1~{R},4~ {R},7~{R})-7-amino-2-azabicyclo[2.2.1]heptane-2-carbonyl]-7-methoxy-1-methyl-benzimidazol-2-yl]-8,8,11-trimethyl-1,10-diazatricyclo[10.5.2.0^{15,18}] nonadeca-12(19), 13,15(18),16-tetraen-9-one], which IC50 is on record?
A: Its IC50 is 17 nM.

Q: How did the IC50 turn out when `C[C@@H]1c2ccc3cc(-c4nc5cc(C(=O)N[C@H]6CNCC[C@@H]6F)c(F)cc5n4C4CC4)n(c3n2)CCCCCc2nc(Cl)ccc2C(=O)N1C` [Example 750, 2-[(2~{R})-8-chloro-2,3-dimethyl-4-oxo-3,9,16,22-tetrazatetracyclo[14.5.2.0^ {5,10}.0^{19,23}]tricosa-1(22),5(10),6,8,17,19(23),20-heptaen-17-yl]-1-cyclopropyl-6-fluoro-~{N}-[(3~{S},4~ {S})-4-fluoro-3-piperidyl] benzimidazole-5-carboxamide] was run?
A: Its IC50 is 28 nM.

Q: With `C[C@H]1NC(=O)c2ccc(Cl)nc2CCCCCn2c(-c3nc4cc(C(=O)N[C@H]5CNCC[C@@H]5F)c(F)cc4n3C3CC3)cc3ccc1nc32` [Example 751, 2-[(2~{R})-8-chloro-2-methyl-4-oxo-3,9,16,22-tetrazatetracyclo[14.5.2.0^ {5,10}.0^{19,23}]tricosa-1(22),5(10),6,8,17,19(23),20-heptaen-17-yl]-1-cyclopropyl-6-fluoro-~{N}-[(3~{S}, 4~{S})-4-fluoro-3-piperidyl]benzimidazole-5-carboxamide] as the molecule, how does the IC50 read?
A: The IC50 was 32 nM.

Q: Which IC50 does the source give for `COc1cc(C(=O)N2[C@@H]3CC[C@@H](N)[C@H]2CC3)cc2nc(-c3cc4ccc5nc4n3CC(F)(F)CCC[C@@H]3C[C@H]3C(=O)N[C@@H]5C)n(C)c12` [Example 752, (2~{R},5~{R},7~{R})-14-[5-[(1~{R},2~{R},5~{R})-2-amino-8-azabicyclo[3.2.1]octane-8-carbonyl]-7-methoxy-1-methyl-benzimidazol-2-yl]-11,11-difluoro-2-methyl-3,13,19-triazatetracyclo[11.5.2.0^ {5,7}.0^{16,20}]icosa-1(19),14,16(20),17-tetraen-4-one] here?
A: Its IC50 is 30 nM.

Q: How did the IC50 turn out when `C[C@@H]1[C@H](N)CCCN1C(=O)c1ccc2c(nc(-c3cc4ccc5nc4n3CC/C=C/C[C@@H]3C[C@H]3C(=O)N[C@@H]5C)n2C2CC2)c1F` [Example 753, (2~{R},5~{R},7~{R},9~{E})-14-[5-[(2~{R},3~{R})-3-amino-2-methyl-piperidine-1-carbonyl]-1-cyclopropyl-4-fluoro-benzimidazol-2-yl]-2-methyl-3,13,19-triazatetracyclo [11.5.2.0^{5,7}.0^{16,20}] icosa-1(19),9,14,16(20), 17-pentaen-4-one] was run?
A: Its IC50 is 113 nM.
